Test results from ChEMBL document CHEMBL1268906, “Discovery of a potent and selective Bcl-2 inhibitor using SAR by NMR” (Bioorg Med Chem Lett, 2010).

Legend:
[1] = target: T1, Apoptosis regulator Bcl-2 (Homo sapiens, UniProt P10415); assay: Inhibition of Bcl-2 by fluorescence polarization assay
[2] = Selectivity ratio of Kd for Bcl-XL to Kd for Bcl-2
[3] = target: T1, Apoptosis regulator Bcl-2; assay: Binding affinity to Bcl-2 by NMR titration assay
[4] = target: T1, Apoptosis regulator Bcl-2; assay: Binding affinity to Bcl-2 by NMR titration assay in presence of 500 uM 1,1-bis(4-chlorophenyl)-3-(dimethylamino)propan-1-ol
Bcl-2-like protein 1 = Bcl-2-like protein 1 (Homo sapiens, UniProt Q07817); assay: Binding affinity to Bcl-XL by NMR titration assay
Chain of Bcl-2-like protein 1 (Q07817 whole entry): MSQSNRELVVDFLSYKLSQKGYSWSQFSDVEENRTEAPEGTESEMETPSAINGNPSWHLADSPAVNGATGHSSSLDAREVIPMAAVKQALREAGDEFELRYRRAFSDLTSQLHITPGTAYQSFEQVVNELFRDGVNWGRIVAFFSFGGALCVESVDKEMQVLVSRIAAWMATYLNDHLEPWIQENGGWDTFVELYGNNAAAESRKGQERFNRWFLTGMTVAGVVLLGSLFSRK

T1 sequence (P10415 whole entry): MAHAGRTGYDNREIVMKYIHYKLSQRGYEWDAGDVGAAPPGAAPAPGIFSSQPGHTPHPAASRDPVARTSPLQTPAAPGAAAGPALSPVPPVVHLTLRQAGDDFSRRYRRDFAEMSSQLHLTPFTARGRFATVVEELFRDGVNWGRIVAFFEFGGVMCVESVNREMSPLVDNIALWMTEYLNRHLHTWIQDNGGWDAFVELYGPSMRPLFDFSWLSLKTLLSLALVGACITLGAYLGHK

Row | SMILES | Ki [1] [µM] | Kd [3] [µM] | further results
1 | CN(C)CCCC(O)(c1ccccc1)c1cccc(OCc2cccc(-c3ccc(C(=O)O)cc3)c2)c1 (stereo not drawn) | 20 | – | –
2 | CN(C)CCCC(O)(c1ccccc1)c1cccc(OCCOc2ccc(-c3ccc(C(=O)O)cc3)cc2)c1 (stereo not drawn) | > 1 | – | –
3 | CCc1cccc(-c2ccc(C(=O)O)cc2)c1 | – | 100 | Kd [4]: 20 µM
4 | CN(C)CCCC(O)(c1ccccc1)c1cccc(OCc2ccc(-c3ccc(C(=O)O)cc3)cc2)c1 (stereo not drawn) | 5.2 | – | –
5 | CN(C)CCCC(O)(c1ccccc1)c1ccccc1 | – | 200 | Kd (Bcl-2-like protein 1): 5000 µM
6 | CN(C)CCCC(O)(c1ccccc1)c1ccc(OCCc2cccc(-c3ccc(C(=O)O)cc3)c2)cc1 (stereo not drawn) | 8 | – | –
7 | O=C(O)c1ccc(-c2ccc(F)cc2)cc1 | – | 400 | Kd [4]: 430 µM
8 | CN(C)CCC[C@@](O)(c1ccccc1)c1ccc(Cl)cc1 | – | 80 | Kd (Bcl-2-like protein 1): 500 µM
9 | CCc1ccc(-c2ccc(C(=O)O)cc2)cc1 | – | 300 | Kd [4]: > 1000 µM
10 | CN(C)CCCC(O)(c1ccccc1)c1cccc(OCCc2cccc(-c3ccc(C(=O)O)cc3)c2)c1 (stereo not drawn) | 5 | – | –
11 | CN(C)CCCC(O)(c1ccccc1)c1cccc(OCCc2ccc(-c3ccc(C(=O)O)cc3)cc2)c1 (stereo not drawn) | 4.6 | – | –
12 | CN(C)CCCC(O)(c1ccccc1)c1ccc(OCc2cccc(-c3ccc(C(=O)O)cc3)c2)cc1 (stereo not drawn) | 5.8 | – | –
13 | CN1CCN(C(c2ccccc2)c2ccc(Cl)cc2)CC1 (stereo not drawn) [CHLORCYCLIZINE] | – | 60 | Kd (Bcl-2-like protein 1): 700 µM
14 | NC[C@](O)(c1ccccc1)c1ccc(F)cc1Cl | – | 250 | –
15 | CN(C)CCCC(O)(c1ccc(Cl)cc1)c1ccc(Cl)cc1 | – | 20 | Kd (Bcl-2-like protein 1): 450 µM; Selectivity ratio [2]: 20

The next lines start with results.

Row | Ki [1] [µM] | Kd [3] [µM] | SMILES | further results
16 | 0.04 | – | CC(C)(C)c1ccc(C(O)(CCN2CCCC2)c2ccc(Cl)c(CCOc3ccc(-c4ccc(C(=O)O)cc4)cc3)c2)cc1 (stereo not drawn) | Selectivity ratio [2]: 1000
17 | > 1 | – | CN(C)CCCC(O)(c1ccccc1)c1ccc(OCCOc2ccc(-c3ccc(C(=O)O)cc3)cc2)cc1 (stereo not drawn) | –
18 | 83 | – | CN(C)CCCC(O)(c1ccccc1)c1ccc(OCc2ccc(-c3ccc(C(=O)O)cc3)cc2)cc1 (stereo not drawn) | –
19 | 0.11 | – | CC(C)(C)c1ccc(C(O)(CCN2CCOCC2)c2ccc(Cl)c(CCOc3ccc(-c4ccc(C(=O)O)cc4)cc3)c2)cc1 (stereo not drawn) | –
20 | 12 | – | CN(C)CCCC(O)(c1ccccc1)c1ccc(OCCc2ccc(-c3ccc(C(=O)O)cc3)cc2)cc1 (stereo not drawn) | –
21 | 0.22 | – | O=C(O)c1ccc(-c2ccc(OCCc3cc(C(O)(CCN4CCOCC4)c4ccc(Cl)cc4)ccc3Cl)cc2)cc1 (stereo not drawn) | –
22 | 0.46 | – | CC(O)(c1ccc(Cl)cc1)c1ccc(Cl)c(CCOc2ccc(-c3ccc(C(=O)O)cc3)cc2)c1 (stereo not drawn) | –
23 | 0.2 | – | O=C(O)c1ccc(-c2ccc(OCCc3cc(C(O)(CCN4CCOCC4)c4ccc(Br)cc4)ccc3Cl)cc2)cc1 (stereo not drawn) | –
24 | 3.4 | – | CN(C)CCCC(O)(c1ccccc1)c1cccc(CCOc2ccc(-c3ccc(C(=O)O)cc3)cc2)c1 (stereo not drawn) | –
